Read-outs that look alike come from different tables or passages of the source.
Legend:
human T cells = assay: 30 min [3H]thymidine, [3H]uridine and [3H]amino acid incorporation; format: cell-based; details: 30 min label, 250 μM vesnarinone
Protocol: Next, the PHA-stimulated T cells were labelled for 30 min with 5.0 μCi/ml of an [^3 H]amino acid mixture (1.0 mCi/ml, Amersham, Arlington Heights, Ill.), washed twice with ice-cold PBS, and then lysed in PBS containing 1.0% (w/v) SDS, followed by addition of a mixture of 7.0% (w/v) trichloroacetic acid and 1.0% (w/v) pyrophosphate. The precipitates were loaded on GF/A filters, and washed extensively with a mixture of 7.0% (w/v) trichloroacetic acid and 1.0% (w/v) pyrophosphate. Radioactivity was measured by scintillation counting.

MRC5 cells = assay: MTT cell viability of MRC5 cells; format: cell-based
Protocol: (§1) More specifically, 5.0 μg/ml of MTT in Eagles MEM supplemented with 2.0% (v/v) fetal bovine serum was added to each well, and incubated at 37° C. for 6 hr. The cells were then solubilized by adding 30% (w/v) SDS in 0.02N HCl. The cultures were incubated overnight at 37° C. Then, the optical density was measured at 570 nm on a spectrophotometer.

[1] = MTT cell viability of MRC5 cells; format: cell-based; details: human, mrc5 cells, read-out: MTT Cell Viability (% of control)
Protocol: as §1

EBV = assay: In situ hybridization of EBV DNA in anti-IgG stimulated DMSO-released Akata cells; format: cell-based, Epstein-Barr virus; details: 20 hrs after 50 μg/ml anti-IgG; vesnarinone 0-100 μg/ml; acyclovir pretreatment
Protocol: The human Burkitt's lymphoma cell line, Akata, provided by Dr. Kenzo Takada (Takada, Int. J. Cancer, 33:27-32 (1984); and Takada et al, Virus Genes, 5:147-156 (1991)), was cultured at 37° C. in RPMI 1640 medium supplemented with 15% (v/v) heat-inactivated FCS, and 20 μg/ml gentamicin.
The cell progression of Akata cells was arrested by culturing of the cells for 96 hrs in the presence of 1.5% (y/v) DMSO (Sigma, St. Louis, Mo.) (Sawai et al, Exp. Cell Res., 187:4-10 (1990); and Takase et al, Cell Growth Differ., 3:515-521 (1992)).
1 hr after transfer (release from DMSO), a goat F(ab')2 fragment of anti-human IgG antibody (Organon Teknika, Durham, N.C.) was added at a concentration of 50 μg/ml to induce productive EBV replication (Takagi et al, Virology, 185:309-315 (1991)).
3 hrs and 20 hrs after treatment with the anti-IgG, the cells were harvested for flow cytometric detection of the BamHI Z replication activator (ZEBRA), and for in situ detection of EBV DNA, respectively. […]
More specifically, cells coated on a glass slide were fixed in acetone at room temperature for 10 min. […] Positivity for EBV DNA was determined by the presence of red-colored grains and at least 1000 cells were examined under light microscopy. […]

ZEBRA, R, EA-R, EA-D = assay: Western immunoblot of EBV early antigens in Akata cells; format: cell-based, Epstein-Barr virus; details: 30 μg/ml vesnarinone
Protocol: 1 hr after release and transfer, the above-described anti-IgG antibody was added at a concentration of 50 μg/ml. 3 hrs and 20 hrs after treatment with the anti-IgG, the cells were harvested for the detection of EBV early antigens ZEBRA (BZLF1 product) by Western immunoblot.
More specifically, cells were washed with PBS, and then lysed at 4° C. in a buffer comprising 25 mM Tris-HCl (pH 7.4), 50 mM NaCl, 0.5% (w/v) sodium deoxycholate, 2.0% (v/v) Nonidet P-40, 0.2% (w/v) SDS, 1.0 mM phenyl-methane sulfonyl fluoride (PMSF), 10 μg/ml aprotinin, 10 μM leupeptin, and 100 μM sodium orthovanadate. After centrifugation, lysates were prepared for electrophoresis as described by Laemmli, Nature, 227:680-685 (1970). An amount of lysate equivalent to 4.0×10^5 cells was used for each immunoblot analysis.
After electrophoretic transfer of proteins to nitrocellulose filters and blocking the filters with 20 mM Tris-HCl (pH 8.0), 125 mM NaCl, 0.1% (v/v) Tween-20, 2.0% (w/v) BSA, and 0.1% (w/v) sodium azide, the filters were incubated with the appropriate primary antibody. For detection of ZEBRA (EB1, BZLF1 gene product), the antibody used was mouse monoclonal anti-EB1 (Z-125); for the detection of R (BRLF1 product), the antibody used was the mouse monoclonal anti-R (R5A9, provided by Dr. Evelyn Manet); for the detection of EA-R (BHRF1 product), monoclonal anti-EA-R (5B11, provided by Dr. Elliott Kieff) (Pearson et al, Virol., 160:151-161 (1987); and Henderson et al, Proc. Natl. Acad. Sci. USA, 90:8479-8483 (1993)), and for the detection of EA-D (BMRF1 product), the antibody used with the mouse monoclonal anti-EA-D (NEA-9240, DuPont, Boston, Mass. (Pearson et al, J. Virol., 47:193-201 (1983); and Kiehl et al, Virol., 184:330-340 (1991))).
Specific reactive bands were detected using anti-mouse secondary antibodies conjugated to alkaline phosphatase (Promega, Madison, Wis.) or horseradish peroxidase (Amersham) or ECL chemiluminescence (Amersham). That is, for detection of ZEBRA and R, alkaline phosphatase was used. For detection of EA-R and EA-D, horseradish peroxidase and the ECL chemiluminescence method was used (Amersham). Development was by the conventional methods, employing the colorogenic substrates bromochloroindolyl phosphate and nitroblue tetrazolium for alkaline phosphatase. The expression of ZEBRA reached a plateau level 3 hrs after stimulation and productive replication of EBV ceased 12 hrs after stimulation in this system.

COc1ccc(C(=O)N2CCN(c3ccc4c(c3)CCC(=O)N4)CC2)cc1OC [vesnarinone, 3,4-dihydro-6-[4-(3,4-dimethoxybenzoyl)-1-piperazinyl]-2(1H)-quinoline]
[3H]amino acid incorporation (human T cells): did not inhibit [^3 H]amino acid incorporation | [3H]uridine incorporation, brief exposure (human T cells; 15 nM aphidicolin or 100 μM deferoxamine): rapidly inhibited [^3 H]uridine incorporation | MTT Cell Viability (% of control) (MRC5 cells; vesnarinone 3.88 μg/ml alone): 100 % of control | MTT Cell Viability (% of control) (MRC5 cells; vesnarinone 7.75 μg/ml alone): 98 % of control | MTT Cell Viability (% of control) (MRC5 cells; vesnarinone 15.5 μg/ml alone): 98 % of control | MTT Cell Viability (% of control) (MRC5 cells; vesnarinone 31 μg/ml alone): 90 % of control | cytotoxicity by MTT (MRC5 cells; vesnarinone 3.88-31 μg/ml, alone or with DHPG 0.625-5.000 μM): little or no cytotoxicity was observed | viability ([1]; vesnarinone 3.88 μg/ml alone): 100% | viability ([1]; vesnarinone 7.75 μg/ml alone): 98% | viability ([1]; vesnarinone 15.5 μg/ml alone): 98% | viability ([1]; vesnarinone 31 μg/ml alone): 90% | population of EBV producing cells (positivity for EBV DNA) (EBV): gradually decreased in the presence of vesnarinone in a dose-dependent manner | expression of ZEBRA (BZLF1) (ZEBRA, R, EA-R, EA-D; 3 hrs after anti-IgG): suppressed 3 hrs after stimulation with anti-IgG to a limited extent | expression of EA-R (BHRF1) (ZEBRA, R, EA-R, EA-D; 3 hrs and 20 hrs): expressed to the same degree 3 hrs and 20 hrs after stimulation | expression of R (BRLF1) (ZEBRA, R, EA-R, EA-D; 3 hrs and 20 hrs): expressed virtually at the same level in the presence or absence of vesnarinone | expression of EA-D (BMRF1) (ZEBRA, R, EA-R, EA-D; 20 hrs after stimulation): dramatically suppressed in the presence of vesnarinone

From patent publication US5670520A, “Method for inhibiting virus replication in mammalian cells using carbostyil derivatives” (Otsuka Pharmaceutical Co., Ltd., priority 1996, dated 1997)
